test: from Kabankin, S.; Boldeskul, E.; Trinus, P.; Protsenko, D.; Landau, A. (1982). Physicochemical characteristics, antitumor activity and quantitative structure-activity relations for phosphoric …; details: pH 7.4

Compound | logD
O=C(NP(=O)(N1CC1)N1CC1)c1ccc(I)cc1 | 1.63
C=CCc1ccc(C(=O)NP(=O)(N2CC2)N2CC2)cc1 | 0.69
O=C(NP(=O)(N1CC1)N1CC1)c1cccc(Br)c1 | 0.88
O=C(NP(=O)(N1CC1)N1CC1)c1ccccc1Br | 0.45
O=C(NP(=O)(N1CC1)N1CC1)c1cc(I)cc(I)c1 | 2.52
O=C(NP(=O)(N1CC1)N1CC1)c1cccc(I)c1 | 1.37
O=C(NP(=O)(N1CC1)N1CC1)c1cc(Br)cc(Br)c1 | 1.15
O=C(NP(=O)(N1CC1)N1CC1)c1ccc(F)cc1 | 0.13
C=CCc1cccc(C(=O)NP(=O)(N2CC2)N2CC2)c1 | 0.65
COc1ccc(C(=O)NP(=O)(N2CC2)N2CC2)cc1 | -0.02
CCOc1cccc(C(=O)NP(=O)(N2CC2)N2CC2)c1 | 0.42
O=C(NP(=O)(N1CC1)N1CC1)c1cc(I)cc(I)c1I | 0.81
COc1cccc(C(=O)NP(=O)(N2CC2)N2CC2)c1 | 0.04
O=C(NP(=O)(N1CC1)N1CC1)c1ccc(Cl)cc1 | 0.46
O=C(NP(=O)(N1CC1)N1CC1)c1ccccc1 | -0.15
